Results on 13 compounds are retold here after patent US5977110A, “Substituted cyclohexylamines as central nervous systems agents” (Warner-Lambert Company, priority 1998, dated 1999).

The target in assay [1] is dopamine D2 receptor (h-D2 Receptors) (Homo sapiens, UniProt P14416). Put plainly: Inhibition of [^3 H]N-0437 Binding to h-D2 Receptors. The settings on record: [^3 H]N-0437 ligand. The protocol: (§1) Thus, the compounds of Formula I were tested for their ability to inhibit spontaneous locomotor activity in mice, a test predictive of antipsychotic activity, according to the assay described by McLean J. R., et al., Pharmacology, Biochemistry and Behavior, 1978;8:97-99; for their ability to bind to the dopamine D2 receptor using [^3 H]-2-(N-propyl-N-2-thienylethylamino)-5-hydroxytetralin ([^3 H)N-0437) as the ligand according to the method disclosed in Van der Weide J., et al., Eur. J. Pharmacol., 1987;134:211-219; and for their ability to bind to the serotonin 5HT1A receptor using [^3 H]-8-hydroxy-dipropylaminotetralin ([^3 H]-8-OH-DPAT) as the ligand according to the method disclosed in Peroutka S. J., et al., Brain Res., 1985;344:167-171. The above test methods are incorporated herein by reference.

Assay [2] deals with T1, serotonin 5HT1A receptor (Rat Hippocampus Membranes) (Rattus norvegicus, UniProt P19327).
T1 construct: Hippocampus; from tissue; host or cells: rat hippocampus membranes
T1 sequence (P19327 1-422): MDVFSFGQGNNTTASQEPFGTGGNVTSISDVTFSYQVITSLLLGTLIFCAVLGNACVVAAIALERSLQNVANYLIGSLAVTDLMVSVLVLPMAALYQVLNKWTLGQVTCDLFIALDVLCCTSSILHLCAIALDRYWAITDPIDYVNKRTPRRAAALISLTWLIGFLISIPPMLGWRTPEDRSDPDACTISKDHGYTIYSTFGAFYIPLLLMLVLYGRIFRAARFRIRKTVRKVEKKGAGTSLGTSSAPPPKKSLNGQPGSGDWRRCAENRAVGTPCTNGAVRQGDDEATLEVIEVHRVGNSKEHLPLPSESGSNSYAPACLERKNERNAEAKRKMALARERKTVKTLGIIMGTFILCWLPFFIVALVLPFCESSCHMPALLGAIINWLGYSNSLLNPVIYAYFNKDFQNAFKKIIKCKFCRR
Description: Inhibition of [^3 H]8-OH-DPAT Binding to Rat Hippocampus Membranes. The settings on record: [^3 H]-8-OH-DPAT ligand. The protocol:
as §1, with “The compounds of Formula I are valuable dopaminergic and serotonergic agents. […] Thus,” for “Thus,”, “reference. The data in the table show the dopaminergic and serotonergic activity of representative compounds of Formula I.” for “reference.”

The subject of assay [3] is spontaneous locomotor activity in mice. Description: Inhibition of spontaneous locomotor activity in mice, a test predictive of antipsychotic activity. It counts as in vivo. The settings on record: Mus musculus, read-out: Inhibition of Locomotor Activity in Mice (ED50, mg/kg, IP). Here is the method:
as §1, with “The compounds of Formula I are valuable dopaminergic and serotonergic agents. […] Thus,” for “Thus,”, “reference. The data in the table show the dopaminergic and serotonergic activity of representative compounds of Formula I.” for “reference.”

pKi: −log10 of the molar value. Where a name gives a salt, the structure may show the parent alone. Read-outs that look alike come from different tables or passages of the source.

Sequence of dopamine D2 receptor (h-D2 Receptors) (P14416 whole entry): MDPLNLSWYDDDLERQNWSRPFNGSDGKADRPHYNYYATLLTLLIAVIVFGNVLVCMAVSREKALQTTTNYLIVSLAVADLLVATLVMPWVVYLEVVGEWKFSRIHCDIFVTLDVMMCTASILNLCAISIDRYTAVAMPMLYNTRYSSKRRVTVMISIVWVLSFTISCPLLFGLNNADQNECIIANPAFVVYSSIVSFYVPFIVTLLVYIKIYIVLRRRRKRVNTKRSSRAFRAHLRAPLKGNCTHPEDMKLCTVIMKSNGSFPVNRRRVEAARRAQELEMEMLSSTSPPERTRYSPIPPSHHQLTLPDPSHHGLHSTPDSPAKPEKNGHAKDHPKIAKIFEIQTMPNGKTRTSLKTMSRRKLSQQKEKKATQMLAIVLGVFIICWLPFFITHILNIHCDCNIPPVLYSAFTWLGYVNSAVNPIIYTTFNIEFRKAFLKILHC

With `c1cnc(N[C@H]2CC[C@H](CCN3CCN(c4cccnc4)CC3)CC2)nc1` [Example 20, trans-{4-[2-(4-Pyridin-3-yl-piperazin-1-yl)-ethyl]-cyclohexyl}-pyrimidin-2-yl-amine], the negative logarithm of the Ki (pKi) in assay [1] was 7.60. On to `c1ccc(N2CCN(CC[C@H]3CC[C@H](Nc4nccs4)CC3)CC2)cc1` [Example 26, trans-{4-[2-(4-Phenyl-piperazin-1-yl)-ethyl]-cyclohexyl}-thiazol-2-yl-amine], for which the pKi in assay [1] is 8.63; in assay [2], 8.10. In the case of `C1=C(c2ccccc2)CCN(CC[C@H]2CC[C@H](Nc3ncccn3)CC2)C1` [Example 16, trans-{4-[2-(4-Phenyl-3,6-dihydro-2H-pyridin-1-yl)-ethyl]-cyclohexyl}-pyrimidin-2-yl-amine], in assay [3] (ip), the ED50 was 0.25 mg/kg. As to `c1ccc(N2CCN(CC[C@H]3CC[C@H](Nc4cnccn4)CC3)CC2)cc1` [Example 27, trans-{4-[2-(4-Phenyl-piperazin-1-yl)-ethyl]-cyclohexyl}-pyrazin-2-yl-amine], the pKi is 9.03 in assay [1] and 8.29 in assay [2]. Moreover, in assay [3] (mice, IP, ED50), the ED50 is 0.18 mg/kg. `c1ccc(N2CCN(CC[C@H]3CC[C@@H](Nc4ncccn4)CC3)CC2)cc1` [Example 9, cis-{4-[2-(4-Phenyl-piperazin-1-yl)-ethyl]-cyclohexyl}-pyrimidin-2-yl-aminehydrochloride]: the pKi in assay [1] is 7.55; in assay [2] it was 8.72. With `Cl.c1ccc(N2CCN(CC[C@H]3CC[C@@H](Nc4ncccn4)CC3)CC2)nc1` [Example 1, cis-{4-[2-(4-Pyridin-2-yl-piperazin-1-yl)-ethyl]-cyclohexyl}-pyrimidin-2-yl-amine hydrochloride], the negative-log Ki (pKi) in assay [2] was 8.06. Moreover, in assay [3] (mice, IP, ED50), the ED50 is 1.2 mg/kg. In the case of `c1ccc(N2CCN(CC[C@H]3CC[C@H](Nc4ncccn4)CC3)CC2)nc1` [Example 1a, trans-{4-[2-(4-Pyridin-2-yl-piperazin-1-yl)-ethyl]-cyclohexyl}-pyrimidin-2-yl-amine], in assay [3] (mice, IP, ED50), the ED50 was 0.24 mg/kg. As to `c1ccc(N2CCN(CC[C@H]3CC[C@H](Nc4ncccn4)CC3)CC2)cc1` [Example 2, trans-{4-[2-(4-Phenyl-piperazin-1-yl)-ethyl]cyclohexyl}-pyrimidin-2-yl-amine], the pKi in assay [1] is 8.47; in assay [2], 8.51. In assay [3] (mice, IP, ED50), the ED50 is 0.3 mg/kg. For `c1cnc(N[C@H]2CC[C@H](CCN3CCN(c4nccs4)CC3)CC2)nc1` [Example 17, trans-Pyrimidin-2-yl-{4-[2-(4-thiazol-2-yl-piperazin-1-yl)-ethyl]-cyclohexyl}-amine], in assay [3] (mice, IP, ED50), the ED50 is 0.3 mg/kg.

On to `FC(F)(F)c1cccc(N2CCN(CC[C@H]3CC[C@H](Nc4ncccn4)CC3)CC2)c1` [Example 12, trans-Pyrimidin-2-yl-(4-{2-[4-(3-trifluoromethyl-phenyl)-piperazin-1-yl]-ethyl}-cyclohexyl)-amine], for which the ED50 in assay [3] (mice, IP, ED50) was 4.4 mg/kg. As for `c1ccc(N2CCN(CC[C@H]3CC[C@H](Nc4ccccn4)CC3)CC2)cc1` [Example 24, trans-{4-[2-(4-Phenyl-piperazin-1-yl)-ethyl]cyclohexyl}-pyridin-2-yl-amine], the values for the pKi in assay [1] and in assay [2] were 8.85 and 8.92, respectively. For the same compound, in assay [3] (mice, IP, ED50), the ED50 was 0.2 mg/kg. For the compound `Fc1ccc(N2CCN(CC[C@H]3CC[C@H](Nc4ncccn4)CC3)CC2)cc1` [Example 15, trans-(4-{2-[4-(4-Fluoro-phenyl)-piperazin-1-yl]-ethyl}-cyclohexyl)-pyrimidin-2-yl-amine], the pKi in assay [1] is 8.08; in assay [2], 8.36. The ED50 in assay [3] (mice, IP, ED50) was 0.7 mg/kg.

For `COc1ccccc1N1CCN(CC[C@H]2CC[C@H](Nc3ncccn3)CC2)CC1` [Example 13, trans-(4-{2-[4-(2-Methoxy-phenyl)-piperazin-1-yl]ethyl}-cyclohexyl)-pyrimidin-2-yl-amine], in assay [3] (mice, IP, ED50), the ED50 was 0.5 mg/kg.

Broadly, the pKi is −log10 of the Ki, conventionally taken in molar units. Higher therefore signals a small Ki.
